Consider 35 molecules from patent US11203613B2, “Peptidomimetic proteasome inhibitors” (CORNELL UNIVERSITY, priority 2017, dated 2021).

Several values for one entry are separate records, joined by “and”; a condition that tells them apart may be missing. Equal entries are not always repeated. Where two headings read alike, the source gives them in different places. Bounds are passed on as bounds.

The target of assay [1] is Mtb20SOG (Mycobacterium tuberculosis, UniProt P9WHT9). Kind of assay: biochemical.
Mtb20SOG, sequence (P9WHT9 58-291): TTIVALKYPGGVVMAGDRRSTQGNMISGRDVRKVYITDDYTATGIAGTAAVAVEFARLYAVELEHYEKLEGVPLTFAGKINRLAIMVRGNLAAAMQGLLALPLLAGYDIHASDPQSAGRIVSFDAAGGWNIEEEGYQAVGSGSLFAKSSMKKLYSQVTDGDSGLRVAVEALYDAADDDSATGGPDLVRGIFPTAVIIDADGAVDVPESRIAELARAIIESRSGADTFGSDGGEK
Assay [2] addresses Human Constitutive (Hu C-20S) β5 Active Subunit (Homo sapiens, UniProt P28074). Kind of assay: IC50 determination, human constitutive 20S proteasome β5c (suc-LLVY-AMC hydrolysis). As to conditions: Table 2; several values in a cell are repeat determinations; read-out: Hu c-20S IC50. Format: biochemical.
[3] abbreviates: Table 2, several values in a cell are repeat determinations.

Regarding `Cc1cc(C(=O)N[C@@H](CC(=O)N2CCCCC2C)C(=O)N(C)[C@@H](C)C(=O)NCc2ccc(F)cc2F)no1` (stereo partly shown), the half-maximal inhibitory concentration (IC50) came out at 10 µM in assay [1] (setting [3]) and 19 µM in assay [2].
In the same order, the values of `C[C@H](NC(=O)[C@H](CC(=O)N1CCCC[C@@H]1C)NC(=O)CCc1ccccc1)C(=O)NCc1cccc(NC(=O)OC(C)(C)C)c1` are 24.7 µM and 50.2 µM.
In the same order, the values of `C[C@H](NC(=O)[C@H](CC(=O)N1CCCC[C@@H]1C)NC(=O)CCc1ccccc1)C(=O)NCc1cccc(N)c1` are 0.005 µM and 0.69 µM.
Consider `CCC1CCCCN1C(=O)CC(NC(=O)C1CC1c1ccccc1)C(=O)NC(C)c1nc2c(F)cccc2[nH]1` (stereo not shown), for which the IC50 was 0.051 µM in assay [1] and 8.14 µM in assay [2].
`Cc1cc(C(=O)NC(CC(=O)N2CCCCC2C)C(=O)NC(C)c2ncc(-c3ccccc3)[nH]2)no1` (mixture of isomers) [CF-503094]: the IC50 was 0.471 µM and 0.726 µM in assay [1]; 12 µM and 11 µM in assay [2].
With `C[C@H](NC(=O)[C@H](CC(=O)N1CCCC[C@@H]1C)NC(=O)C1CC(C)(C)C1)c1nc2c(F)cccc2[nH]1` (single isomer, unassigned) [CF-503465], the IC50 in assay [1] (setting [3]) was 0.025 µM and 0.032 µM; in assay [2], 7.62 µM and 1.92 µM.
In the case of `Cc1cc(C(=O)N[C@@H](CC(=O)N2CCCC[C@@H]2C)C(=O)N[C@@H](C)c2ncc(-c3ccccc3)[nH]2)no1` [CF-503102], the 50% inhibitory concentration (IC50) in assay [1] (setting [3]) is 0.717 µM and 0.44 µM; in assay [2] it was 14 µM and 10 µM.
In the case of `Cc1cc(C(=O)N[C@@H](CC(=O)N2CCCC[C@@H]2C)C(=O)N[C@@H](C)c2ncc(-c3ccccc3F)[nH]2)no1` [CF-503103], the IC50 in assay [1] was 0.16 µM and 0.306 µM; in assay [2], above 15 µM.
Regarding `Cc1cc(C(=O)N[C@@H](CC(=O)N2CCCC[C@@H]2C)C(=O)N[C@@H](C)c2ncc(-c3ccc(F)cc3)[nH]2)no1` [CF-503105], the IC50 in assay [1] is 0.259 µM and 0.256 µM; in assay [2], > 18 µM and 19 µM.
For `Cc1cc(C(=O)N[C@@H](CC(=O)N2CCCC[C@@H]2C)C(=O)N[C@@H](C)c2ncc(-c3ccc(F)cc3F)[nH]2)no1` [CF-503111], the IC50 in assay [1] is 0.041 µM and 0.034 µM; in assay [2], 7.2 µM and 5.48 µM.
Regarding `Cc1cc(C(=O)N[C@@H](CC(=O)N2CCC[C@@H]2c2ccccc2)C(=O)NC(C)c2nc3ccccc3[nH]2)no1` (stereo partly shown) [CF-503127], the IC50 in assay [1] is 0.084 µM and 0.1 µM; in assay [2] it was 7 µM.
On to `Cc1cc(C(=O)N[C@@H](CC(=O)N2CCCC[C@@H]2C)C(=O)N[C@@H](C)c2ncc(Cc3ccccc3)[nH]2)no1` [CF-503133], for which the IC50 in assay [1] (setting [3]) was 0.266 µM and 0.231 µM; in assay [2], 5.59 µM and 7.08 µM.
`Cc1cc(C(=O)N[C@@H](CC(=O)N2CCC[C@@H]2c2ccccc2)C(=O)N[C@@H](C)c2ncc(Cc3ccccc3)[nH]2)no1` [CF-503134]: the IC50 in assay [1] was 0.09 µM and 0.057 µM; in assay [2] it was 7.4 µM and 7.6 µM.
For `C[C@H](NC(=O)[C@H](CC(=O)N1CCCC[C@@H]1C)NC(=O)CC1CCOCC1)c1ncc(Cc2ccccc2)[nH]1` [CF-503135], the IC50 in assay [1] (setting [3]) is 0.45 µM and 0.386 µM; in assay [2], 9.12 µM and 13.5 µM.
For `C[C@H](NC(=O)[C@H](CC(=O)N1CCCC[C@@H]1C)NC(=O)CC1CC1)c1ncc(Cc2ccccc2)[nH]1` [CF-503136], the IC50 worked out at 0.925 µM in assay [1] (setting [3]) and 10.4 µM in assay [2].
Turning to `C[C@H](NC(=O)[C@H](CC(=O)N1CCC[C@@H]1c1ccccc1)NC(=O)CC1CC1)c1ncc(Cc2ccccc2)[nH]1` [CF-503137], the IC50 was 0.078 µM and 0.064 µM in assay [1]; 12.6 µM and 10.6 µM in assay [2].
Turning to `C[C@H](NC(=O)[C@H](CC(=O)N1CCCC[C@@H]1C)NC(=O)CC1CC1)c1ncc(-c2ccc(F)cc2F)[nH]1` [CF-503138], the IC50 in assay [1] (setting [3]) was 0.169 µM and 0.085 µM; in assay [2], 11.8 µM and 10.5 µM.
`C[C@H](NC(=O)[C@H](CC(=O)N1CCCC[C@@H]1C)NC(=O)CC1CCOCC1)c1ncc(-c2ccc(F)cc2F)[nH]1` [CF-503139]: the IC50 is 0.089 µM and 0.148 µM in assay [1]; 12.8 µM and 10.3 µM in assay [2].
On to `C[C@H](NC(=O)[C@H](CC(=O)N1CCCC[C@@H]1C)NS(=O)(=O)Cc1ccccc1)c1ncc(-c2ccc(F)cc2F)[nH]1` [CF-503140], for which the results for the IC50 in assay [1] (setting [3]) and in assay [2] were 0.379 µM and 6.13 µM, respectively.
In the same order, the values of `CC(C)CS(=O)(=O)N[C@@H](CC(=O)N1CCCC[C@@H]1C)C(=O)N[C@@H](C)c1ncc(-c2ccc(F)cc2F)[nH]1` [CF-503141] are 0.368 µM and 4.9 µM.
In the same order, the values of `C[C@H](NC(=O)[C@H](CC(=O)N1CCCC[C@@H]1C)NS(=O)(=O)c1ccccc1)c1ncc(-c2ccc(F)cc2F)[nH]1` [CF-503142] are 0.65 µM and 8.13 µM.
With `Cc1ccc(S(=O)(=O)N[C@@H](CC(=O)N2CCCC[C@@H]2C)C(=O)N[C@@H](C)c2ncc(-c3ccc(F)cc3F)[nH]2)cc1` [CF-503143], the IC50 in assay [1] is 0.494 µM; in assay [2], 6.47 µM.
`CCS(=O)(=O)N[C@@H](CC(=O)N1CCCC[C@@H]1C)C(=O)N[C@@H](C)c1ncc(-c2ccc(F)cc2F)[nH]1` [CF-503144]: the IC50 in assay [1] (setting [3]) stood at 1.9 µM; in assay [2], 28.2 µM.
Turning to `C[C@H](NC(=O)[C@H](CC(=O)N1CCCC[C@@H]1C)NCC(=O)c1ccccc1)c1ncc(-c2ccc(F)cc2F)[nH]1` [CF-503145], the IC50 in assay [1] (setting [3]) came to 10 µM; in assay [2], 15.2 µM.
On to `C[C@H](NC(=O)[C@H](CC(=O)N1CCCC[C@@H]1C)NC(=O)C1CCC1)c1ncc(-c2ccc(F)cc2F)[nH]1` [CF-503146], for which the IC50 was found to be 0.163 µM in assay [1] and 2.41 µM in assay [2].
On to `Cc1cc(C(=O)N[C@@H](CC(=O)N2CCCC[C@@H]2C)C(=O)N[C@@H](C)c2nc3ccccc3[nH]2)no1` [CF-503148], for which the values for the IC50 in assay [1] (setting [3]) and in assay [2] were 0.906 µM and 17.4 µM, respectively.
With `CC(C)CCC(=O)N[C@@H](CC(=O)N1CCCC[C@@H]1C)C(=O)N[C@@H](C)c1nc2ccccc2[nH]1` [CF-503149], the IC50 was 0.136 µM and 0.118 µM in assay [1] (setting [3]); 18.9 µM and 23.5 µM in assay [2].
`CC(C)C(=O)CN[C@@H](CC(=O)N1CCCC[C@@H]1C)C(=O)N[C@@H](C)c1ncc(-c2ccc(F)cc2F)[nH]1` [CF-503151]: the IC50 came to 11.4 µM in assay [1] and 9.9 µM in assay [2].
As to `Cc1cc(C(=O)N[C@@H](CC(=O)N2CCC[C@@H]2c2ccccc2)C(=O)N[C@@H](C)c2nc3ccccc3[nH]2)no1` [CF-503152], the IC50 was 0.184 µM and 0.127 µM in assay [1]; 11 µM and 9.7 µM in assay [2].
Turning to `CC(C)CCC(=O)N[C@@H](CC(=O)N1CCC[C@@H]1c1ccccc1)C(=O)NC(C)c1nc2ccccc2[nH]1` (stereo partly shown) [CF-503153], the IC50 was 0.029 µM and 0.053 µM in assay [1] (setting [3]); 19.8 µM in assay [2].
Consider `CC(C)CCS(=O)(=O)N[C@@H](CC(=O)N1CCC[C@@H]1c1ccccc1)C(=O)NC(C)c1nc2ccccc2[nH]1` (stereo partly shown) [CF-503154], for which the IC50 was 0.116 µM and 0.202 µM in assay [1] (setting [3]); 11.8 µM in assay [2].
For `CC1CC(C(=O)N[C@@H](CC(=O)N2CCC[C@@H]2c2ccccc2)C(=O)NC(C)c2nc3ccccc3[nH]2)C1` (stereo partly shown) [CF-503155], the IC50 amounted to 0.125 µM in assay [1] and 8.4 µM in assay [2].
With `CC[C@H]1CCCCN1C(=O)C[C@H](NC(=O)C1CC2(CCC2)C1)C(=O)N[C@@H](C)c1nc2c(F)cccc2[nH]1` [CF-503458], the IC50 in assay [1] was 0.007 µM and 0.011 µM.
Same read-out and setting: next, `CC(NC(=O)C(CC(=O)N1CCCCC1C)NC(=O)C1CC2(CCC2)C1)c1nc2c(F)cccc2[nH]1` (stereo not shown) [CF-503459]: 0.013 µM and 0.02 µM.
`C[C@H](NC(=O)[C@H](CC(=O)N1CCCC[C@@H]1C)NC(=O)[C@H]1C[C@@H]1c1ccccc1)c1nc2c(F)cccc2[nH]1` [drawing 477]: it took 0.166 µM to reach half-maximal inhibition in assay [1] (setting [3]) (IC50).

Usually IC50 stands for the concentration needed to halve the response being measured.
